In patent publication US20190358264A1, “METHODS OF TREATING DISEASES ASSOCIATED WITH ILC2 CELLS” (Limm Therapeutics, SA, priority 2016, published 2019):

Legend:
[1] = system: intestine and lung-derived ILC2s; experiment: In vitro activation of purified ILC2s with NmU23, type 2 cytokine mRNA by quantitative RT-PCR; assay type: cell-based, mouse
Method: For in vitro experiments, purified lung and small intestine lamina propria ILC2s were FBS starved for 2 hours prior to stimulation and cultured in complete RPMI (supplemented with 10% foetal bovine serum (FBS), 1% hepes, sodium pyruvate, glutamine, streptomycin and penicillin) at 37° C. For mRNA analysis, ILC2s were stimulated overnight with recombinant mouse Neuromedin U 23 peptide (NmU23, 100 ng/mL; Phoenix pharmaceuticals). Both NmU23-stimulated and control ILC2s were cultured in the presence of IL-2 and IL-7 (10 ng/mL; Peprotech). ILC2s were lysed using RLT buffer (Qiagen). For cytokine protein analysis, ILC2s were incubated exclusively with brefeldin A (eBioscience) for 12 hours prior to intracellular staining. For in vivo experiments, B6 mice were injected intraperitoneal with NmU23 peptide (2 g/day) during Nippostrongylus brasiliensis infection or with a single dose of NmU23 (20 μg) and analyzed after 8 hours. Control mice were treated with PBS alone. Total RNA was extracted using RNeasy micro kit (Qiagen) according to the manufacturer's protocol. RNA concentration was determined using Nanodrop Spectrophotometer (Nanodrop Technologies). Quantitative real-time RT-PCR was performed as previously described^5,8. Hprt1, Gapdh and Eef1a1 were used as housekeeping genes. For TaqMan assays (Applied Biosystems) RNA was retro-transcribed using a High Capacity RNA-to-cDNA Kit (Applied Biosystems), followed by a pre-amplification PCR using TaqMan PreAmp Master Mix (Applied Biosystems). TaqMan Gene Expression Master Mix (Applied Biosystems) was used in real-time PCR. TaqMan Gene Expression Assays (Applied Biosystems) were the following: Hprt1 Mm00446968_m1; Gapdh Mm99999915_g 1; Eef1a1 Mm01973893_g 1; Il5 Mm00439646_m1; Il13 Mm00434204_m1; Areg Mm01354339_m1; 114 Mm00445259_m1; Csf2 Mm01290062_m1; Gata3 Mm00484683_m1; Rora Mm01173766_m1; Nmu Mm00479868_m1; Nmur1 Mm04207994_m1. Real-time PCR analysis was performed using StepOne Real-Time PCR system (Applied Biosystems).

ILC2s = experiment: In vivo administration of NmU23, ILC2- and T cell-derived type 2 cytokines; set-up: species or system mouse; conditions: single dose NmU23 20 μg intraperitoneal, analyzed after 8 hours, vs PBS
Method: For in vitro experiments, purified lung and small intestine lamina propria ILC2s were FBS starved for 2 hours prior to stimulation and cultured in complete RPMI (supplemented with 10% foetal bovine serum (FBS), 1% hepes, sodium pyruvate, glutamine, streptomycin and penicillin) at 37° C. For mRNA analysis, ILC2s were stimulated overnight with recombinant mouse Neuromedin U 23 peptide (NmU23, 100 ng/mL; Phoenix pharmaceuticals). Both NmU23-stimulated and control ILC2s were cultured in the presence of IL-2 and IL-7 (10 ng/mL; Peprotech). ILC2s were lysed using RLT buffer (Qiagen). For cytokine protein analysis, ILC2s were incubated exclusively with brefeldin A (eBioscience) for 12 hours prior to intracellular staining. For in vivo experiments, B6 mice were injected intraperitoneal with NmU23 peptide (2 g/day) during Nippostrongylus brasiliensis infection or with a single dose of NmU23 (20 μg) and analyzed after 8 hours. Control mice were treated with PBS alone.
Intracellular staining was performed using IC fixation/permeabilization kit (eBioscience). Flow cytometry analysis and cell sorting were performed using BD LSRFORTESSA and BD FACSAria flow cytometers (BD Biosciences). Data analysis was done using FlowJo software (Tristar). Sorted populations were >95% pure. […]

## recombinant mouse Neuromedin U 23 peptide (FKAEYQSPSVGQSKGYFLFRPRN; listed as Mus musculus) [NmU23, NMUR1 agonist neuropeptide, Phoenix pharmaceuticals]
[1]; NmU23 100 ng/mL in vitro (FIG. 9f)
  innate Il5 and Il13 gene expression in intestinal ILC2: immediate innate Il5 and Il13 upregulation
[1]; NmU23 100 ng/mL overnight, with IL-2 and IL-7, intestine and lung ILC2s
  expression of type 2 cytokines genes Il5, Il13, Areg and Csf2 in ILC2s: prompt and very potent expression
[1]; NmU23 100 ng/mL overnight, intestine and lung ILC2s
  expression of the master type 2 transcription factor Gata3 in ILC2s: increased expression
ILC2s
  T helper cell-derived type 2 cytokines after in vivo administration: unperturbed
  type 2 cytokine production from ILC2s after in vivo administration: immediate and selective type 2 cytokine production
